In patent US20140193802A1, “IDENTIFICATION OF AN ALTERED THERAPEUTIC SUSCEPTIBILITY TO ANTI-HCMV COMPOUNDS AND OF A RESISTANCE AGAINST ANTI-HCMV COMPOUNDS” (priority 2012, published 2014):
“And” between values parts separate entries of the source, which are not always exact repeats. Identical values can stand only once. Like-named read-outs stand apart in the source and are kept apart here.

How the values were obtained:
Type in all cases: cell-based, human cytomegalovirus (HCMV)
HCMV strain AD169 = experiment: HCMV cytopathic effect reduction assay (CPE-RA); settings: Human betaherpesvirus 5, mean ± SD
Description: HCMV Cytopathic Effect Reduction Assay (CPE-RA)
CPE-RAs were performed basically as described elsewhere (HCMV replication assay). In brief, the addition of 2 μl test compound of 50, 5, 0.5, 0.05, 0.005, and 0.0005 mM DMSO stock solutions to 100 μl cell culture medium in duplicate was followed by serial 2-fold dilutions in 96-well microtiter plates. Each well was supplemented with 150 μl of either a suspension of 1×10^4 NHDF cells mixed with cell-free HCMV (multiplicity of infection (MOI), 0.03) or a suspension of 1×10^4 to 3×10^4 HCMV-infected and uninfected NHDF cells (MOI, 0.001 to 0.002). Non-infected and non-treated cells served as controls on each plate. Final compound concentrations ranged between 250 and 0.00005 μM. Plates were incubated for 6 to 7 days at 37° C. or until the virus control reached 100% CPE. A mixture containing 20% Giemsa stain (Merck) and 5% formalin solution (Merck) was added to the wells for fixation and staining. After extensive washing, plates were dried at 56° C. followed by visual evaluation using an overhead microscope (plaque magnifier; Tecnorama Zürich). Each assay was performed at least in triplicate, and standard deviations were calculated. The assay plate data were used to calculate the EC50 (CPE-RA), i.e., the concentration of drug that inhibits the CPE by 50% compared with an untreated virus-infected control.

RV-HG UL56-C325Y = experiment: GFP-RA, marker transfer mutant; settings: for EC50: Human betaherpesvirus 5
Description: (§1) HCMV Fluorescence Reduction Assay (GFP-RA)
(§2) The susceptibilities of recombinant HCMV laboratory strains expressing GFP were determined by a GFP-based fluorescence reduction assay. For standard assays, 1.5×10^4 NHDF cells/well were cultured in black 96-well plates (Greiner Bio-One, Germany) and infected with either HCMV-GFP (MOI, 0.1) or RV-HG (MOI, 0.2 to 0.5). After virus adsorption, the virus inoculum was replaced with 200 μl fresh medium. Thereafter, 100 μl medium containing the test compounds was added to wells of horizontal row G, followed by serial 3-fold dilutions up to row A. All drug concentrations were tested at least in duplicate. Wells of the horizontal row H served as the virus control. Plates were incubated at 37° C. for 7 days. The medium was replaced by 200 μl PBS, and GFP units (GFPU) were determined by a charge-coupled-device-camera-based fluorescence detector (FluoBox; Bayer Technology Services GmbH, Leverkusen, Germany), which captures 96 images simultaneously. Drug effects were calculated as a percentage of reduction in GFPU in the presence of each drug concentration compared to the GFPU determined in the absence of drug. EC50 and EC90 values (drug concentrations producing 50% and 90% reduction in GFPU) were calculated using nonlinear regression curve fit with a variable slope. GraphPad Prism 3.02 or 4.0 software (GraphPad Software Inc., La Jolla, Calif.) was used for all analyses.
(§3) The HCMV AD169-derived bacterial artificial chromosome (BAC) pHG served as the backbone for the construction of the mutant viruses. The markerless introduction of point mutations into pHG was done using a two-step recombination protocol according to the en passant method. Briefly, a recombination fragment containing the I-SceI-AphAI cassette from plasmid pEPKan-S was obtained by PCR using primers containing ˜60 bp of homology to the intended integration site in ORF UL56 of BAC pHG and ˜20 bp specific for pEPKan-S. This fragment was electroporated into Escherichia coli GS1783 that harbored the pHG BAC. […] After successful kanamycin selection, all non-HCMV sequences were removed by an intrabacterial ISceI digest and a subsequent second Red recombination, resulting in the scarless repair of the mutated UL56 gene in the background of BAC pHG. The integrity of the generated BACs was confirmed by restriction enzyme digestion and sequencing. To reconstitute virus mutants, the recombinant BACs were transfected into permissive MRC5 cells. At least two independent virus clones per mutation were generated and evaluated.

RV-HG UL56-V231L = experiment: GFP-RA, marker transfer mutant; settings: for EC50: Human betaherpesvirus 5, RV-HG UL56-V231L, fluorescence reduction assay, mean ± SD, read-out: EC50
Description: as §1, §2, §3

RV-HG UL56-V236M = experiment: GFP-RA, marker transfer mutant; settings: for EC50: Human betaherpesvirus 5
Description: as §1, §2, §3

RV-HG UL56-L241P = experiment: GFP-RA, marker transfer mutant; settings: for EC50: Human betaherpesvirus 5
Description: as §1, §2, §3

RV-HG UL56-L241P/R369S = experiment: GFP-RA, marker transfer mutant; settings: for EC50: Human betaherpesvirus 5, RV-HG UL56-L241P/R369S, fluorescence reduction assay, mean ± SD, read-out: EC50
Description: as §1, §2, §3

RV-HG UL56-R369M = experiment: GFP-RA, marker transfer mutant; settings: for EC50: Human betaherpesvirus 5, RV-HG UL56-R369M, fluorescence reduction assay, mean ± SD, read-out: EC50
Description: as §1, §2, §3

RV-HG UL56-R369S = experiment: GFP-RA, marker transfer mutant; settings: for EC50: Human betaherpesvirus 5, RV-HG UL56-R369S, fluorescence reduction assay, mean ± SD, read-out: EC50
Description: as §1, §2, §3

SMILES: Nc1nc(O)c2ncn(COC(CO)CO)c2n1 [Ganciclovir]
- EC50 (HCMV strain AD169): 3400 ± 1500 nM
- EC50 (RV-HG UL56-C325Y): 2110 ± 710 nM
- EC50 (RV-HG UL56-V231L): 720 ± 240 nM
- EC50 (RV-HG UL56-V236M): 1560 ± 330 nM
- EC50 (RV-HG UL56-L241P): 2110 ± 770 nM
- EC50 (RV-HG UL56-L241P/R369S): 2860 ± 1160 nM
- EC50 (RV-HG UL56-R369M): 1260 ± 640 nM
- EC50 (RV-HG UL56-R369S): 1960 ± 1090 nM

SMILES: COc1cccc(N2CCN(C3=Nc4c(F)cccc4[C@H](CC(=O)O)N3c3cc(C(F)(F)F)ccc3OC)CC2)c1 [Letermovir, (S)-{8-fluoro-2-[4-(3-methoxyphenyl)-1-piperazinyl]-3-[2-methoxy-5-(trifluoromethyl)phenyl]-3,4-dihydro-4-quinazolinyl}acetic acid]
- EC50 (HCMV strain AD169): 5.6 ± 1.6 nM
- EC50 (RV-HG UL56-C325Y; RV-HG UL56-C325Y, fluorescence reduction assay, mean ± SD, read-out: EC50): 26400 ± 8500 nM
- Resistance index (RI) = EC50 indicated RV-HG mutant/EC50 RV-HG wt (RV-HG UL56-C325Y; RV-HG UL56-C325Y vs RV-HG wt): 8910
- EC50 (RV-HG UL56-V231L): 20 ± 4.7 nM
- Resistance index (RI) = EC50 indicated RV-HG mutant/EC50 RV-HG wt (RV-HG UL56-V231L; RV-HG UL56-V231L vs RV-HG wt): 5
- EC50 (RV-HG UL56-V236M; RV-HG UL56-V236M, fluorescence reduction assay, mean ± SD, read-out: EC50): 70 ± 20 nM
- Resistance index (RI) = EC50 indicated RV-HG mutant/EC50 RV-HG wt (RV-HG UL56-V236M; RV-HG UL56-V236M vs RV-HG wt): 24
- EC50 (RV-HG UL56-L241P; RV-HG UL56-L241P, fluorescence reduction assay, mean ± SD, read-out: EC50): 680 ± 240 nM
- Resistance index (RI) = EC50 indicated RV-HG mutant/EC50 RV-HG wt (RV-HG UL56-L241P; RV-HG UL56-L241P vs RV-HG wt): ~160 and 221
- EC50 (RV-HG UL56-L241P/R369S): 5260 nM
- Resistance index (RI) = EC50 indicated RV-HG mutant/EC50 RV-HG wt (RV-HG UL56-L241P/R369S; RV-HG UL56-L241P/R369S vs RV-HG wt): 1776
- EC50 (RV-HG UL56-R369M): 40 ± 15 nM
- Resistance index (RI) = EC50 indicated RV-HG mutant/EC50 RV-HG wt (RV-HG UL56-R369M; RV-HG UL56-R369M vs RV-HG wt): 13
- EC50 (RV-HG UL56-R369S): 140 ± 70 nM
- Resistance index (RI) = EC50 indicated RV-HG mutant/EC50 RV-HG wt (RV-HG UL56-R369S; RV-HG UL56-R369S vs RV-HG wt): ~38 and 48
